Each structure is given as a SMILES string. Residue numbers refer to the chain shown, from its start.

The values below come from PMC2649376 (Molecular membrane biology, 2006).

Test [1] has as its target T1, N128E mutant 5-HT3 receptor (Mus musculus, UniProt P23979, N128E).
T1 sequence (P23979 24-483 isoform P23979-2 N128E limits assumed): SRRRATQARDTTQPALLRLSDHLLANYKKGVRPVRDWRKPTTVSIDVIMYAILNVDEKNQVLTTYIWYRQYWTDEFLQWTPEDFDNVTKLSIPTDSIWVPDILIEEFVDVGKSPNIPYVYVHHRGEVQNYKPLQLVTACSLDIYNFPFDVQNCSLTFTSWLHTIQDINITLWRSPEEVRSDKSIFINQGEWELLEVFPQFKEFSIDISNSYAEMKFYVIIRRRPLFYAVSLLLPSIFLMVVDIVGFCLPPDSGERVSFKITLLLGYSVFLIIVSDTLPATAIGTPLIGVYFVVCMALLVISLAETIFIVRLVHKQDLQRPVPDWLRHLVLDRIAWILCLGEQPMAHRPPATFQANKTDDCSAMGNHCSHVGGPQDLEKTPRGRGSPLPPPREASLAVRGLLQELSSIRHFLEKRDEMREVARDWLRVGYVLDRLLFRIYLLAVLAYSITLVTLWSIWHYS
Briefly: FlexStation membrane potential dye functional assay. Format: cell-based.

Test [2] deals with T2, N128V mutant 5-HT3 receptor (Mus musculus, UniProt P23979, N128V).
T2 sequence (P23979 24-483 isoform P23979-2 N128V limits assumed): T1 sequence (P23979 24-483 isoform P23979-2 N128E limits assumed) with E105V
Described as above. Format: cell-based.

The target of test [3] is T3, F130A mutant 5-HT3 receptor (Mus musculus, UniProt P23979, F130A).
T3 sequence (P23979 24-483 isoform P23979-2 F130A limits assumed): T1 sequence (P23979 24-483 isoform P23979-2 N128E limits assumed) with E105N, F107A
The description is as above. Format: cell-based.

Test [4] has as its target T4, F130W mutant 5-HT3 receptor (Mus musculus, UniProt P23979, F130W).
T4 sequence (P23979 24-483 isoform P23979-2 F130W limits assumed): T1 sequence (P23979 24-483 isoform P23979-2 N128E limits assumed) with E105N, F107W
The test is described as above. Format: cell-based.

In test [5] the target is T5, F130Y mutant 5-HT3 receptor (Mus musculus, UniProt P23979, F130Y).
T5 sequence (P23979 24-483 isoform P23979-2 F130Y limits assumed): T1 sequence (P23979 24-483 isoform P23979-2 N128E limits assumed) with E105N, F107Y
The description is as above. The note with it: HEK 293 cells. Format: cell-based.

The target in test [6] is T6, N128D mutant 5-HT3 receptor (Mus musculus, UniProt P23979, N128D).
T6 sequence (P23979 24-483 isoform P23979-2 N128D limits assumed): T1 sequence (P23979 24-483 isoform P23979-2 N128E limits assumed) with E105D
The note with it: HEK 293 cells.

Test [7] concerns the target T7, N128L mutant 5-HT3 receptor (Mus musculus, UniProt P23979, N128L).
T7 sequence (P23979 24-483 isoform P23979-2 N128L limits assumed): T1 sequence (P23979 24-483 isoform P23979-2 N128E limits assumed) with E105L
The settings on record: HEK 293 cells.

In test [8] the target is T8, N128Q mutant 5-HT3 receptor (Mus musculus, UniProt P23979, N128Q).
T8 sequence (P23979 24-483 isoform P23979-2 N128Q limits assumed): T1 sequence (P23979 24-483 isoform P23979-2 N128E limits assumed) with E105Q
The settings on record: HEK 293 cells.

The target of test [9] is T9, N128R mutant 5-HT3 receptor (Mus musculus, UniProt P23979, N128R).
T9 sequence (P23979 24-483 isoform P23979-2 N128R limits assumed): T1 sequence (P23979 24-483 isoform P23979-2 N128E limits assumed) with E105R

The target in test [10] is T5, F130Y mutant 5-HT3 receptor. The settings on record: whole cell electrophysiology, ref Steward et al. 2000; cited from earlier work.
Test [11] deals with F130N mutant 5-HT3 receptor. The settings on record: F130N mutant receptor activated with acetylcholine; ref Steward et al. 2000; cited from earlier work.

In the case of `NCCc1c[nH]c2ccc(O)cc12` [5-HT, 5-hydroxytryptamine], the “change in EC50 versus wild type” value in [1] was “did not significantly affect the EC50”; in [2] it was “four-fold decrease in EC50”; in test [3] it was “four-fold decrease in EC50”; in test [4] it was “four-fold decrease in EC50”. For the same molecule, the “Hill Coefficient” value in test [1] (HEK 293 cells) worked out at 2.369±0.12; in test [2] (HEK 293 cells) it was 1.809±0.34; in test [3] (HEK 293 cells) it was 2.959±0.39; in test [4] (HEK 293 cells) it was 2.159±0.35; in test [5] it was 2.609±0.39; in test [6] it was 2.169±0.68. Also, the “Hill Coefficient” value in [7] is reported as 2.519±0.15; in [8] it was 1.929±0.08. Besides, in [9], the “factor of increase in EC50 versus wild type” value was roughly 1500. For the same molecule, in [10], the “increase in EC50 versus wild type reported previously” value is given as 8 fold.

Usually EC50 stands for the concentration at which the effect is half-maximal. In the case of `CC(=O)OCC[N+](C)(C)C` [acetylcholine], the concentration for a half-maximal effect (EC50) in test [11] is 256 µM.
